Measured values reported in ChEMBL document CHEMBL1157375, “Prospective randomized trial of empiric therapy with trimethoprim-sulfamethoxazole or doxycycline for outpatient skin and soft tissue infections in an area of high prevalence of methicillin-resistant Staphylococcus aureus” (2007).
Active and inactive are the calls of the source. No cut-off for these calls is given here.

System: Staphylococcus aureus
Assay: Antimicrobial activity against methicillin-resistant Staphylococcus aureus infected patient with skin and soft tissue infection abscesses assessed as clinical failure rate at 100 mg, po twice daily for 7 days
Format: functional, organism-based

For `C[C@H]1c2cccc(O)c2C(=O)C2=C(O)[C@]3(O)C(=O)C(C(N)=O)=C(O)[C@@H](N(C)C)[C@@H]3[C@@H](O)[C@@H]21`, the Activity was “Active”.
